According to patent publication US7271148B2, “Inhibition of cellular proteases” (The Board of Regents of The University of Texas System, priority 1999, dated 2007):

Legend:
[1] = tested on: p21^cip1 abundance in mock-infected LU cells; experiment: Western blot of p21cip1 abundance in mock-infected, density-arrested LU cells; assay type: cell-based, human; conditions: E64d 100 μM, mock-infected cells
Method: Cell culture and growth arrest. LU cells (3) were propagated in Eagle's minimum essential medium containing 10% fetal bovine serum and penicillin (100 units/ml)/streptomycin (100 μg/ml) in a 5% CO2 in air atmosphere. The cells were density-arrested as described previously in detail (18).
Virus stocks and productive infection. The AD169 strain of HCMV was propagated in LU cells as previously described in detail (6). The infectivity of virus stocks was determined by plaque assay (3). Virus stocks typically had infectivities between 8.0×10^6 and 4.0×10^7 plaque-forming units (PFU)/milliliter. LU cells were infected with HCMV as described in detail by Bresnahan et al. (18). Virus stocks and cell cultures were routinely examined for mycoplasma.
Western blots. Polyclonal or monoclonal antibody for p21^cip1 was obtained from Santa Cruz Biotechnology, Inc. (Santa Cruz, Calif.). Monoclonal antibodies against m-calpain, μ-calpain or calpastatin were generously provided by Dr. R. I. Mellgren (see also 75). Cells were harvested as described previously (18) by dislodging the cells with a cell lifter in phosphate buffered saline. The cells were collected by sedimentation and lysed in NP-40 lysis buffer [50 mM Tris, pH 7.4, 50 mM NaCl, 0.5% NP-40, and 1 mM NaVO3, 50 mM NaF, 1mM phenylmethylsulfonyl fluoride (PMSF), 1 mM dithiothreitol (DTT), 25 μg/ml trypsin inhibitor, 25 μg/ml aprotinin, 1 mM benzamide, and 25 μg/ml pepstatin A added just before use]. Cellular debris was removed by sedimentation and the supernatant fluids were reserved. The protein concentration was determined by the BCA protein assay (Pierce, Rockford, Ill.). Whole cell extracts (40 μg/lane) were fractionated by SDS-polyacrylamide gel electrophoresis (PAGE), and the polypeptides were transferred to nitrocellulose membranes (Bio-Rad Laboratories, Hercules, Calif.) as described previously (18). Antigen-antibody reactions were detected with the enhanced chemiluminescent assay (Amersham Pharmacia Biotech) following the manufacturer's recommendations.
FIGS. 5 and 6. The effect of MG132, an inhibitor of proteasome degradation, on p21^cip1 abundance in HCMV- or mock-infected, density-arrested LU cells. 5. LU cells were density arrested, as described in Materials and Methods. The cell cultures were HCMV (5 PFU/cell)- or mock-infected and then exposed to selected concentrations of MG132 at 24 hr PI. Cell lysates were prepared at 30 hr PI (i.e., 6 hr after […] treatment), and 40 μg of protein from each lysate was resolved by SDS-PAGE. The proteins were transferred to nitrocellulose and probed with antibodies against p21^cip1. Control, cells cultured in the absence of MG132 or its solvent, DMSO. 0, DMSO solvent control, consisting of cells treated with the same concentration of DMSO (0.1%) present in the cultural fluids containing highest concentration of MG132 (10 μM). 6. Represents the abundance of p21^cip1 after MG132 treatment determined by densitometry of the data illustrated in FIG. 5. The data for mock-infected cells (open bars) were calculated relative to the p21^cip1 abundance in untreated mock-infected cells, while the data for HCMV-infected cells (closed bars) were determined relative to the p21^cip1 abundance in untreated HCMV-infected cells.
FIGS. 7 and 8. […]
At the times indicated in the FIG., whole cell lysates were prepared, and 40 μg of protein from each lysate was analyzed by SDS-PAGE. […]

[2] = biological target: T1, m-calpain (Homo sapiens, UniProt P17655); experiment: Cleavage of purified recombinant p21cip1 by purified m-calpain; assay type: biochemical; conditions: purified recombinant p21^cip1 incubated with m-calpain
T1 construct: purchased Sigma (St. Louis, Mo.)
T1 sequence (P17655 1-700): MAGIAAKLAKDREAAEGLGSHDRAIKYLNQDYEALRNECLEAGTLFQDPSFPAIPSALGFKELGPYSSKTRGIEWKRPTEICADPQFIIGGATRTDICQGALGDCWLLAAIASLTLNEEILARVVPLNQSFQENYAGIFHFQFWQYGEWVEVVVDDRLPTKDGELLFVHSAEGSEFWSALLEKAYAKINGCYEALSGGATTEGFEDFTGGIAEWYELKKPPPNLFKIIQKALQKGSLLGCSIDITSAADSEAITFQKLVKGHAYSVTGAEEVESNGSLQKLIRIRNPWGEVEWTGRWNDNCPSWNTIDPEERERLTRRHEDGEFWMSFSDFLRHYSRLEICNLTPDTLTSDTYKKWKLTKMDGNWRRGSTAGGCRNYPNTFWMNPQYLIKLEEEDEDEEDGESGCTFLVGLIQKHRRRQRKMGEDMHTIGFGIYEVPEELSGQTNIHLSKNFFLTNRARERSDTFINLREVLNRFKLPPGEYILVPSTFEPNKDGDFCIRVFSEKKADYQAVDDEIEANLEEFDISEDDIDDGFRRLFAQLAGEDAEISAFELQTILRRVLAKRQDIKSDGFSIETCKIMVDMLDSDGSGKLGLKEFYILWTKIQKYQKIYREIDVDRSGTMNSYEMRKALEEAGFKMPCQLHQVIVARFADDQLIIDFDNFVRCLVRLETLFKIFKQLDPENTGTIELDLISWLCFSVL
T1 sequence (P04632 1-268 partner): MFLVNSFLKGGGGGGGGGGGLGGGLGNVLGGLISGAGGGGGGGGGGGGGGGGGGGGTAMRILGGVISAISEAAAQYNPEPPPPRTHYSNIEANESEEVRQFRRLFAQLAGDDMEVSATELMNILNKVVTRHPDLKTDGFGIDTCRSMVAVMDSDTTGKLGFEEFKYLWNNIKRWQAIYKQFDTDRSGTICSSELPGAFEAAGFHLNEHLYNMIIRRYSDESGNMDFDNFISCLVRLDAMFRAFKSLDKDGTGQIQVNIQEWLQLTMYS
Method: Cleavage of p21^cip1 by calpain. Recombinant p21^cip1 was provided by Harper (37) or Ke (47), and was also prepared using the expression plasmid pET-p21 (37) according to the published methods (30). To evaluate the effect of calpains on p21^cip1, 400 ng of purified recombinant p21^cip1 was incubated with 0.004 units of either pure μ-calpain or m-calpain at 30° C. for 30 minutes in 40 μl of cleavage buffer, containing 25 mM Tris-HCl (pH 7.5), 100 mM NaCl, 3 mM DTT and 5 mM CaCl2 (44). EDTA was added to 10 mM to stop the reaction. An equal volume of 2×SDS gel-loading buffer (18) was mixed with the digestion mixture and the mixture was immediately boiled for 5 min. The digestion products were evaluated by Western blot analysis or SDS-PAGE and coomassie brilliant blue staining.

proteolysis of p21^cip1 by m-calpain (in words) [2]: inhibited the proteolysis
Structure (SMILES): CC(C)C[C@H](NC(=O)[C@H]1O[C@@H]1C(=O)O)C(=O)NCCCCN=C(N)N (relative stereo) [E64d, trans-epoxysuccinyl-L-leucylamido (4-guanidino)-butane]
effect on p21^cip1 levels in mock-infected cells (in words) [1]: little, if any, effect
increase in p21^cip1 ([1]; 3 hr post-treatment (treatment from 48 hr PI)): ~56%
